Data reported in patent US6495588B2, “Scytonemin and methods of using thereof” (The Regents of the University of California, priority 2000, dated 2002).

Columns and labels:
[1] = test system: PMA-induced cell proliferation in mouse ear epidermis; test: Mouse ear cell proliferation assay (IUdR incorporation, PCNA histology); format: in vivo; conditions: +PMA 4 μg/ear; scytonemin 1 mg/ear, dexamethasone 0.15 mg/ear
Description: To determine the efficacy of scytonemin as an anti-proliferative agent in vivo, the following assay was conducted. On day one, test compounds were delivered in 10 μl 20% DMSO, 80% acetone and applied to both the inner and outer pinnae of left ears (20 μl total) of male, Swiss Webster mice (Taconic Farms, Germantown, N.Y.). The right ears received only vehicle. One hour post test compound application, 4 μg/ear PMA (Sigma, St. Louis, Mo.) in 10 μl acetone was applied to the inner pinnae of each left ear and 10 μl acetone was applied to each right ear. Four hours post test compound application, the each test compound was again applied in the same manner. On day two, the test compounds were applied twice with a four-hour interval between each application. On day three, the test compounds and PMA were applied as they had been on day one.
One hour after the final test compound applications, each mouse was injected with 0.6 ml of a solution containing the thymidine analogue, 5-iodo-I^125-2′-deoxyuridine (IUdR) (2 μCi-I^125/mouse) and, to inhibit the endogenous deoxythymidilic acid synthetase, fluorodeoxyuridine (FUdR) ([…]). This IUdR/FUdR solution was made up in RPMI 1640 media. Eighteen hours post injection, the mice were euthanized via CO2 inhalation, the ears were excised and soaked individually in a 70% EtOH solution overnight.
IUdR incorporation was then measured using a Beckman Gamma counter, Model 5500B. […] Therefore, scytoneman compounds may be used to reduce, prevent, inhibit, modulate, or attenuate cell proliferation.
Additionally, immunostaining with Proliferating Cell Nuclear Antigen (PCNA) was used as a proliferation marker to identify proliferating cells. PCNA is a cofactor for DNAt […]. Expression levels of PCNA fluctuate over the cell cycle. […] Low expression levels of PCNA indicate non-cycling cells.
Histological analysis was used to determine the effect of scytonemin on the thickness of the epidermal layer of skin, the mitotic index of cells in the epidermal layer, the number of cells in the epidermis, and the amount of immune cell infiltration. PCNA antibodies were used to detect the presence of PCNA in cells and a peroxidase-Ni/DAB development system was used to stain PCNA-positive cells black and hematoxlin was used as a nuclear blue counterstain using conventional methods.

Jurkat T cells = test: Apoptosis assay (TUNEL, flow cytometry); format: cell-based; conditions: 3 μM, 24 hours
Description: To determine the mechanism behind the ability of SCY to inhibit cell proliferation, about 2×10^5 Jurkat T cells/ml were treated with vehicle (negative control), 3 μM SCY, or 3 μM camptothecin (positive control) a (0.1% DMSO[final]) and incubated at 37° C., 5% CO2 for 24 hours. As a positive control, camptothecin, a DNA topoisomerase inhibitor, was used because of its ability to arrest Jurkat cells at the G2/M phase of the cell cycle and induce the cells to undergo apoptosis. The cells were fixed in 1% paraformaldehyde, washed once with PBS, and stored in 70% EtOH at−20° C. Apoptosis was measured using the Promega Apoptosis Detection System (Promega, Madison, Wis.) an adapted TUNEL staining method.
The cells were washed two times with 5 ml PBS 2% FBS, then transferred to a microcentrifuge tube in 1 ml PBS, 0.2% Triton×100, 5 mg/ml BSA and incubated on ice for 5 minutes. Samples were spun, PBS solution removed, then resuspended in 80 μl equilibration buffer from Promega kit and incubated at room temperature for 10 minutes. Then the samples were spun and the equilibration buffer removed. A nucleotide mix comprising 45 μl equilibration buffer, 5 μl nucleotide mix, 1 μl Tdt enzyme per sample, was used to resuspend each sample in the dark. The cells were incubated in the dark at 37° C. for 1 hour. The reaction was terminated by the addition of 20 mM EDTA. The samples were washed twice with 1 ml RNAse A and a small aliquot, about 50 μl, was viewed under a microscope. Cells were stained with fluoroscein and then counterstained with propidium iodide and analyzed for DNA content and fragmentation using a Becton-Dickinson FacsSort (Becton-Dickinson, San Jose, Calif.).

Structure (SMILES)	cells actively proliferating (PCNA staining) [1]	cells induced to undergo apoptosis (Jurkat T cells) [%]	effect on cell cycle progression (Jurkat T cells)
C[C@@H]1C[C@H]2[C@@H]3CCC4=CC(=O)C=C[C@]4(C)[C@@]3(F)[C@@H](O)C[C@]2(C)[C@@]1(O)C(=O)CO [dexamethasone, reference compound]	about 60%	–	–
CC[C@@]1(O)C(=O)OCc2c1cc1n(c2=O)Cc2cc3ccccc3nc2-1 [camptothecin, reference compound]	–	71	arrested the cells at G2/M phase
